The source of these data is patent US9023789B2, “Amylin analogs and pharmaceutical compositions thereof” (Novo Nordisk A/S, priority 2012, dated 2015).

SMILES strings stand for the structures. Numbered stars: 1 amine (or outer) side, 2 acyl side, 3 side chain; on linkers, the order of the positions; unused ones are H or OH. Bridge positions count the residues as written; N and C are the ends. Side chains are listed from the residue outwards. Peptide text beside a SMILES is read from it. * marks the point of attachment. C20 diacid = O=C(O)CCCCCCCCCCCCCCCCCCC(=O)*; γGlu = O=C(O)[C@H](CCC(=O)[*:2])N[*:1]; AEEA = NCCOCCOCC(=O)O

A short description of data set [1]: ASSAY (III) ThT fibrillation assay for physical stability. It counts as physicochemical. Put shortly: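 Formulations with 1 μM ThT, pH adjusted as required, incubated at 37 °C with 960 rpm orbital shaking; fluorescence (ex 444/em 485 nm) read every 20 min. Fibrillation reported as mean ThT fluorescence ± SD of 4–8 replicates at time points; polypeptide concentration measured by reverse-phase HPLC before and after, post-centrifugation.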

Data set [2] deals with T1, rat calcitonin receptor (Rattus norvegicus, UniProt P32214).
T1 construct: expressed in transfected cells; host or cells: BHK tk'ts 13 (transient, FuGENE 6), membranes
T1 sequence (P32214 25-479 isoform P32214-2 limits assumed): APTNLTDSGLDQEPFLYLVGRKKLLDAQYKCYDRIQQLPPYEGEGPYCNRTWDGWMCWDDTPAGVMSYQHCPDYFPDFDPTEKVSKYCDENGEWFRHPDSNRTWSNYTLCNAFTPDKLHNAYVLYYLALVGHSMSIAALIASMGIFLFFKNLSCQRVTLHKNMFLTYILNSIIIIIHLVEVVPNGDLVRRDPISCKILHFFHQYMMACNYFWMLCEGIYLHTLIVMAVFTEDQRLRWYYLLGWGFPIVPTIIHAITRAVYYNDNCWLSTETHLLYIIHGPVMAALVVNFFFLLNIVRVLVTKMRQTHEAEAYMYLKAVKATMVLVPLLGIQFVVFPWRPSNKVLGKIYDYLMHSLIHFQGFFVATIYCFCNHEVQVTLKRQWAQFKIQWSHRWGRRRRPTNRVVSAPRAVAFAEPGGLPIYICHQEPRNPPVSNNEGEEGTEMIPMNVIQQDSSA
Briefly: ASSAY (VIII) binding to the rat calcitonin receptor. The following applies: Table 7, read-out: rCTR bind IC50. In short, it runs like this: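 Membranes were prepared from BHK tk′ts 13 cells transiently transfected with rat calcitonin receptor. Cells were grown in DMEM with 10% FBS and harvested approximately 48 hours after transfection.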

The target in data set [3] is T2, rat amylin receptor (rat calcitonin receptor + rat RAMP 3) (Rattus norvegicus, UniProt P32214+Q9JJ73).
T2 construct: expressed in transfected cells; host or cells: BHK tk'ts 13 (transient, FuGENE 6), membranes
T2 sequence (P32214 25-479 isoform P32214-2 limits assumed): T1 sequence (P32214 25-479 isoform P32214-2 limits assumed)
T2 sequence (Q9JJ73 23-147 partner): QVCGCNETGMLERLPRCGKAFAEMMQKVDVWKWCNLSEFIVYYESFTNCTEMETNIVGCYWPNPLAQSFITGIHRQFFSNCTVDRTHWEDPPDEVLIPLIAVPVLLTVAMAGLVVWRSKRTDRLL
Briefly: ASSAY (VI) binding to the rat amylin receptor. The following applies: for IC50: binding to rat amylin receptor, read-out: rAmylin-R bind IC50. Put shortly:
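This assay measured binding to the rat amylin receptor. BHK tk′ts 13 cells were transiently transfected with the rat calcitonin receptor using FuGENE® 6 (Roche), following the manufacturer's recommendations. About 48 hours after transfection, the cells were harvested and membranes were prepared from them for the binding determination.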

The mark [4] stands for this setting: Table 7, rat binding selectivity, rCTR IC50 / rAmylin-R IC50.
Setting [5] is: Table 7a (preferred compounds), rat binding selectivity, rCTR IC50 / rAmylin-R IC50.
Setting [6] is: ratio of rCTR bind IC50 to rAmylin-R bind IC50.

Take `CC[C@H](C)[C@H](NC(=O)[C@H](C)NC(=O)CNC(=O)[C@H](Cc1ccccc1)NC(=O)[C@H](CC(N)=O)NC(=O)[C@@H]1CCCN1C(=O)[C@H](CO)NC(=O)[C@H](CO)NC(=O)[C@H](Cc1c[nH]cn1)NC(=O)[C@H](CCCNC(=N)N)NC(=O)[C@H](CC(C)C)NC(=O)[C@H](Cc1ccccc1)NC(=O)[C@H](CCC(=O)O)NC(=O)[C@H](C)NC(=O)[C@H](CC(C)C)NC(=O)[C@H](CCCNC(=N)N)NC(=O)[C@H](CCC(N)=O)NC(=O)[C@@H](NC(=O)[C@H](C)NC(=O)[C@@H]1CSSC[C@H](NC(=O)[C@@H](N)CCCCNC(=O)CC[C@H](NC(=O)CC[C@H](NC(=O)CCCCCCCCCCCCCCCCCCC(=O)O)C(=O)O)C(=O)O)C(=O)N[C@@H](CC(N)=O)C(=O)N[C@@H]([C@@H](C)O)C(=O)N[C@@H](C)C(=O)N[C@@H]([C@@H](C)O)C(=O)N1)[C@@H](C)O)C(=O)N[C@@H](CC(C)C)C(=O)N[C@@H](CO)C(=O)N[C@@H](CO)C(=O)N[C@H](C(=O)N1CCC[C@H]1C(=O)N[C@H](C(=O)NCC(=O)N1CCC[C@H]1C(=O)N[C@@H](CCC(=O)O)C(=O)N[C@H](C(=O)N[C@@H](Cc1ccc(O)cc1)C(N)=O)[C@@H](C)O)C(C)C)[C@@H](C)O` [Example 121] (H-K([γGlu-γGlu-C20 diacid])CNTATCATQRLAEFLRHSSPNFGAILSSTPVGPETY-NH2; disulfide 2-7; N-terminus assumed): in data set [1], the “ThT pH 4.0 lag time (h)” value is on record as 3 h. Also, the concentration for half-maximal inhibition (IC50) (as a rule, the concentration that gives 50% inhibition) was 33.5 nM in data set [2] and 0.449 nM in data set [3] (Table 7). The “Ratio rCT/rAmylin binding” value in data set [3] (setting [4]), in data set [3] (setting [5]) and in data set [3] (setting [6]) was 74.7 in each case.
On to `CC[C@H](C)[C@H](NC(=O)[C@H](C)NC(=O)CNC(=O)[C@H](Cc1ccccc1)NC(=O)[C@H](CC(N)=O)NC(=O)[C@@H]1CCCN1C(=O)[C@H](CO)NC(=O)[C@H](CO)NC(=O)[C@H](Cc1c[nH]cn1)NC(=O)[C@H](CCCNC(=N)N)NC(=O)[C@H](CC(C)C)NC(=O)[C@H](Cc1ccccc1)NC(=O)[C@H](C)NC(=O)[C@H](C)NC(=O)[C@H](CC(C)C)NC(=O)[C@H](CCCNC(=N)N)NC(=O)[C@H](CCC(N)=O)NC(=O)[C@@H](NC(=O)[C@H](C)NC(=O)[C@@H]1CSSC[C@H](NC(=O)[C@@H](N)CCCCNC(=O)CC[C@H](NC(=O)CCCCCCCCCCCCCCCCCCC(=O)O)C(=O)O)C(=O)N[C@@H](CC(N)=O)C(=O)N[C@@H]([C@@H](C)O)C(=O)N[C@@H](C)C(=O)N[C@@H]([C@@H](C)O)C(=O)N1)[C@@H](C)O)C(=O)N1CCC[C@H]1C(=O)N[C@@H](CO)C(=O)N[C@@H](CO)C(=O)N[C@H](C(=O)N[C@@H](CC(N)=O)C(=O)N[C@H](C(=O)NCC(=O)N[C@@H](Cc1c[nH]cn1)C(=O)N[C@@H](CC(N)=O)C(=O)N[C@H](C(=O)N[C@@H](Cc1ccc(O)cc1)C(N)=O)[C@@H](C)O)C(C)C)[C@@H](C)O` [Example 93] (H-K([γGlu-C20 diacid])CNTATCATQRLAAFLRHSSPNFGAIPSSTNVGHNTY-NH2; disulfide 2-7; N-terminus assumed), for which the “ThT pH 4.0 lag time (h)” value in data set [1] came out at 16 h. Besides, the IC50 in data set [2] amounted to 131 nM; in data set [3] (Table 7), 1.58 nM. The “Ratio rCT/rAmylin binding” value in data set [3] (setting [4]), in data set [3] (setting [5]) and in data set [3] (setting [6]) was 83.2 in each case.
Regarding `CC[C@H](C)[C@H](NC(=O)[C@H](C)NC(=O)CNC(=O)[C@H](Cc1ccccc1)NC(=O)[C@H](CC(N)=O)NC(=O)[C@@H]1CCCN1C(=O)[C@H](CO)NC(=O)[C@H](CO)NC(=O)[C@H](Cc1c[nH]cn1)NC(=O)[C@H](CCCNC(=N)N)NC(=O)[C@H](CC(C)C)NC(=O)[C@H](Cc1ccccc1)NC(=O)[C@H](CC(N)=O)NC(=O)[C@H](C)NC(=O)[C@H](CC(C)C)NC(=O)[C@H](CCCNC(=N)N)NC(=O)[C@H](CCC(N)=O)NC(=O)[C@@H](NC(=O)[C@H](C)NC(=O)[C@@H]1CSSC[C@H](NC(=O)[C@@H](N)CCCCNC(=O)COCCOCCNC(=O)COCCOCCNC(=O)CC[C@H](NC(=O)CCCCCCCCCCCCCCCCCCC(=O)O)C(=O)O)C(=O)N[C@@H](CC(N)=O)C(=O)N[C@@H]([C@@H](C)O)C(=O)N[C@@H](C)C(=O)N[C@@H]([C@@H](C)O)C(=O)N1)[C@@H](C)O)C(=O)N1CCC[C@H]1C(=O)N[C@@H](CO)C(=O)N[C@@H](CO)C(=O)N[C@H](C(=O)N[C@@H](CC(N)=O)C(=O)N[C@H](C(=O)NCC(=O)N[C@@H](Cc1c[nH]cn1)C(=O)N[C@@H](CC(N)=O)C(=O)N[C@H](C(=O)N[C@@H](Cc1ccc(O)cc1)C(N)=O)[C@@H](C)O)C(C)C)[C@@H](C)O` [Example 97], the “ThT pH 4.0 lag time (h)” value in data set [1] worked out at 30 h. The 50% inhibitory concentration (IC50) in data set [2] is 159 nM; in data set [3] (Table 7), 2.24 nM. The “Ratio rCT/rAmylin binding” value in data set [3] (setting [4]), in data set [3] (setting [5]) and in data set [3] (setting [6]) was 71.1 each time.
Consider `CC[C@H](C)[C@H](NC(=O)[C@H](C)NC(=O)CNC(=O)[C@H](Cc1ccccc1)NC(=O)[C@H](CC(N)=O)NC(=O)[C@@H]1CCCN1C(=O)[C@H](CO)NC(=O)[C@H](CO)NC(=O)[C@H](Cc1c[nH]cn1)NC(=O)[C@H](CCCNC(=N)N)NC(=O)[C@H](CC(C)C)NC(=O)[C@H](Cc1ccccc1)NC(=O)[C@H](CC(N)=O)NC(=O)[C@H](C)NC(=O)[C@H](CC(C)C)NC(=O)[C@H](CCCNC(=N)N)NC(=O)[C@H](CCC(N)=O)NC(=O)[C@@H](NC(=O)[C@H](C)NC(=O)[C@@H]1CSSC[C@H](NC(=O)[C@@H](N)CCCCNC(=O)COCCOCCNC(=O)CC[C@H](NC(=O)CCCCCCCCCCCCCCCCCCC(=O)O)C(=O)O)C(=O)N[C@@H](CC(N)=O)C(=O)N[C@@H]([C@@H](C)O)C(=O)N[C@@H](C)C(=O)N[C@@H]([C@@H](C)O)C(=O)N1)[C@@H](C)O)C(=O)N1CCC[C@H]1C(=O)N[C@@H](CO)C(=O)N[C@@H](CO)C(=O)N[C@H](C(=O)N[C@@H](CC(N)=O)C(=O)N[C@H](C(=O)NCC(=O)N1CCC[C@H]1C(=O)N[C@@H](Cc1c[nH]cn1)C(=O)N[C@H](C(=O)N[C@@H](Cc1ccc(O)cc1)C(N)=O)[C@@H](C)O)C(C)C)[C@@H](C)O` [Example 58] (H-K([AEEA-γGlu-C20 diacid])CNTATCATQRLANFLRHSSPNFGAIPSSTNVGPHTY-NH2; disulfide 2-7), for which the “ThT pH 4.0 lag time (h)” value in data set [1] is on record as 38 h. For the same molecule, the IC50 in data set [2] amounted to 10.3 nM; in data set [3] (Table 7) it was 0.135 nM. In addition, the “Ratio rCT/rAmylin binding” value in data set [3] (setting [4]), in data set [3] (setting [5]) and in data set [3] (setting [6]) was 76.6 in each case.
On to `CC[C@H](C)[C@H](NC(=O)[C@H](C)NC(=O)CNC(=O)[C@H](Cc1ccccc1)NC(=O)[C@H](CC(N)=O)NC(=O)[C@@H]1CCCN1C(=O)[C@H](CO)NC(=O)[C@H](CO)NC(=O)[C@H](Cc1c[nH]cn1)NC(=O)[C@H](CCCNC(=N)N)NC(=O)[C@H](CC(C)C)NC(=O)[C@H](Cc1ccccc1)NC(=O)[C@H](Cc1c[nH]cn1)NC(=O)[C@H](C)NC(=O)[C@H](CC(C)C)NC(=O)[C@H](CCCNC(=N)N)NC(=O)[C@H](CCC(N)=O)NC(=O)[C@@H](NC(=O)[C@H](C)NC(=O)[C@@H]1CSSC[C@H](NC(=O)[C@@H](N)CCCCNC(=O)COCCOCCNC(=O)CCCCCCCCCCCCCCCCCCC(=O)O)C(=O)N[C@@H](CC(N)=O)C(=O)N[C@@H]([C@@H](C)O)C(=O)N[C@@H](C)C(=O)N[C@@H]([C@@H](C)O)C(=O)N1)[C@@H](C)O)C(=O)N1CCC[C@H]1C(=O)N[C@@H](CO)C(=O)N[C@@H](CO)C(=O)N[C@H](C(=O)N[C@@H](CC(N)=O)C(=O)N[C@H](C(=O)NCC(=O)N[C@@H](CO)C(=O)N[C@@H](CC(N)=O)C(=O)N[C@H](C(=O)N[C@@H](Cc1ccc(O)cc1)C(N)=O)[C@@H](C)O)C(C)C)[C@@H](C)O` [Example 90], for which the “ThT pH 4.0 lag time (h)” value in data set [1] worked out at 10 h. Also, the results for the IC50 in data set [2] and in data set [3] (Table 7) were 18.2 nM and 0.246 nM, respectively. Also, the “Ratio rCT/rAmylin binding” value in data set [3] (setting [4]), in data set [3] (setting [5]) and in data set [3] (setting [6]) was 74.1 in each case.
